Results as given in patent publication US7071293B1, “Alpha helical peptides with broad spectrum antimicrobial activity that are insensitive to salt” (priority 1999, dated 2006).
Ends that are not written are not given here.

Legend:
[1] = system: B. cepacia ATCC 25416; experiment: Two stage radial diffusion assay (MIC); type: cell-based; parameters: unit not given here; conditions: underlay 0 mM NaCl
[2] = system: N. gonorrhoeae; experiment: Two stage radial diffusion assay (MIC); type: cell-based; parameters: unit not given here; conditions: done only at 100 mM NaCl; for N. gonorrhoeae F 62 (serum-sensitive): strain F 62 (serum-sensitive); for N. gonorrhoeae FA 19 (serum-resistant): strain FA 19 (serum-resistant)
[3] = system: L. monocytogenes EGD; experiment: Two stage radial diffusion assay (MIC); type: cell-based; parameters: unit not given here; conditions: underlay 0 mM NaCl
[4] = system: E. coli ML-35p; conditions: underlay 0 mM NaCl; Table 15
[5] = system: P. aeruginosa MR 3007; conditions: MR 3007
[6] = system: S. aureus 930918-3; conditions: 930918-3
[7] = system: MRSA ATCC 33591; conditions: ATCC 33591
[8] = system: E. coli DH-5α; conditions: DH-5α
[9] = system: P. aeruginosa PA-01

Sequence	B. cepacia ATCC 25416 in underlays of low, normal and high salinity, 0 mM NaCl [1]	N. gonorrhoeae F 62 (serum-sensitive) [2]	N. gonorrhoeae FA 19 (serum-resistant) [2]	L. monocytogenes in underlays of low, normal and high salinity, 0 mM NaCl [3]	E. coli ML-35p MIC, 0 mM NaCl [4]	P. aeruginosa MR-3007 MIC, 0 mM NaCl [5]	S. aureus 930918-3 MIC, 0 mM NaCl [6]	MRSA ATCC 33591 MIC, 0 mM NaCl [7]	E. coli DH-5α MIC, 0 mM NaCl [8]	P. aeruginosa PA-01 MIC, 0 mM NaCl [9]
LRKFRNKIKEKLKKIGQKI [Peptide 22]	>250	>79.1	>250	5.9	0.1 µg/mL	0.7 µg/mL	6.0 µg/mL	4.5 µg/mL		
GLRKRLRKFRNKIKEKLKKIGQKIQGLLPKLAPRTDY [Peptide 18]	>79.1	0.7	0.6	0.6	2.8 µg/mL	2.1 µg/mL	1.8 µg/mL	8.2 µg/mL	0.84 µg/mL	0.88 µg/mL
RKFRNKIKEKLKKIG [Peptide 24]	>250	>250	>250	24.1	9.7 µg/mL	5.1 µg/mL	19.5 µg/mL	>250 µg/mL		
GLRKRLRKFRNKIKEKLKKIG [Peptide 19]	>250	0.6	>79.1	0.3	2.3 µg/mL	0.7 µg/mL	1.8 µg/mL	19.4 µg/mL		
LRKFRNKIKEKLKKIGQKIQG [Peptide 23]	>250	>79.1	>250	5.5	0.2 µg/mL	1.5 µg/mL	16.3 µg/mL	10.3 µg/mL		
KIKEKLKKIGQKIQG [Peptide 25]	>250	>79.1	>250	>250	1.6 µg/mL	8.7 µg/mL	>250 µg/mL	>250 µg/mL		
KRLRKFRNKIKEKLKKIG [Peptide 20]	>250	>250	>250	2.3	2.3 µg/mL	2.9 µg/mL	9.7 µg/mL	14.9 µg/mL		
KIKEKLKKIGQKIQGLL [Peptide 26]	>250	>79.1	>250	5.7	0.4 µg/mL	1.0 µg/mL	>250 µg/mL	>250 µg/mL		
